Series [1] is described as follows: Oxygen Radical Absorbance Capacity (ORAC) assay. The conditions noted are these: fluorescein 10 nM, AAPH 100 mM, 37 °C, pH 7.0; mean ± SD (n = 3); Trolox = 1 ORAC Units. From the text:
Free radicals and ROS are highly reactive molecules that are generated by normal cellular processes. They react with cellular components, damaging DNA, carbohydrates, proteins, and lipids causing cellular and tissue injury. Although organisms have developed complex antioxidant systems to protect themselves from oxidative substances, an excess of ROS production can lead to inflammation and several disease state. ORAC test measures both lipophilic and hydrophilic antioxidant capacity and determines the ability of antioxidants to protect proteins from damage caused by free radicals. ORAC assay has been widely accepted as a standard in vitro to measure the antioxidant activity of synthetic compounds, measuring their capacity to transfer hydrogen atom. The assay measures the loss of fluorescence over time due to peroxyl-radical formation by the breakdown of 2,2′-azobis-2-methyl-propanimidamide dihydrochloride (AAPH). 6-Hydroxy-2,5,7,8-tetramethylchroman-2-carboxylic acid (Trolox), a water soluble vitamin E analog, is a positive control that inhibits the fluorescein decay in a dose dependent manner. The ORAC assay is a kinetic assay measuring fluorescein decay and antioxidant protection over time.
The ORAC assay was performed as previously reported by Cao et al.. The measurements were carried out on a Wallac 1420 Victor^3 96-well plate reader (EG & Wallac, Turku, Finland) with fluorescence filter ([…]). Fluorescein (10 nM) was the fluorescence probe and target molecule for free radical attack from AAPH (100 mM) as peroxyl radical generator. The reaction was conducted at 37 °C at pH 7.0 with Trolox (12.5 μM) as control standard and phosphate buffer as blank. Compounds 13–19 and 22–23 were appropriately diluted with DMSO/buffer (1:10) prior to analysis. The fluorescein fluorescence was recorded every 2 min after addition of AAPH. All measurements were expressed relative to the initial reading. One blank, one standard, and a maximum of 10 samples were analyzed at the same time. Each measure was repeated at least three times. The ORAC value refers to the net protection area under the quenching curve of fluorescein in the presence of an antioxidant. The final results (ORAC value) were calculated and expressed using Trolox equivalents (TE) per gram of extract (TE/g):ORAC value (μM) = K(S sample − S blank)/(S Trolox − S blank)(1) where K is a sample dilution factor, S is the area under the fluorescence decay curve of the sample, Trolox or blank. This area was calculated with Origin®7 (OriginLab Corporation, Northampton, MA, USA).

The target in another series is T1, human recombinant MMP-9 (Homo sapiens, UniProt P14780).
T1 construct: using 10 nM of proteolytic enzyme (catalytic domains of MMP-9 (Biomol, Inc.)); purchased Biomol, Inc
T1 sequence (P14780 107-444 limits assumed): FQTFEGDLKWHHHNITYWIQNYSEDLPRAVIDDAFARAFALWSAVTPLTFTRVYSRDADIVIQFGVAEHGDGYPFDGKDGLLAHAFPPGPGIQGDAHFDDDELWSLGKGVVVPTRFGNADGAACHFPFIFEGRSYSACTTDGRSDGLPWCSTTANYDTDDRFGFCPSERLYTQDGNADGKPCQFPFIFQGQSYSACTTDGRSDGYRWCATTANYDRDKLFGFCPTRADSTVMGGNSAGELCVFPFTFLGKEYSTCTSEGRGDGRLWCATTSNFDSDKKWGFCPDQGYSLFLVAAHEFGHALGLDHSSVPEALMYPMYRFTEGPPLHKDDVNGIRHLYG
Briefly: MMP-9 fluorimetric assay. In kind it is biochemical. The conditions noted are these: catalytic domain of MMP-9 10 nM, substrate 350 nM, 25 °C, pH 7; mean ± SD (n = 3); n.a. = not active; read-out: IC50 Value. Here is the method: The synthesized compounds 13–19, 22 and 23 were tested for their in vitro ability to inhibit human recombinant MMP-9. Table 2 reports the results of this inhibition assay, expressed as IC50 (µM). […] We used as positive control a potent MMPs inhibitor, NNGH (N-isobutyl-N-(4-methoxy-phenylsulfonyl)glycylhydroxamic acid).
The compounds were evaluated for their ability to inhibit the hydrolysis of fluorescence-quenched peptide substrate Mca-Pro-Leu-Gly-Leu-Dpa-Ala-Arg-NH2 (Biomol, Inc., Enzo Life Sciences, Inc., Farmingdale, NY, USA). The MMP-9 assays were performed in 50 mM HEPES buffer containing 5 mM CaCl2, 0.1 mM ZnCl2, 0.05% Brij-35, at pH 7, using 10 nM of proteolytic enzyme (catalytic domains of MMP-9 (Biomol, Inc.) and 350 nM of peptide substrate. The enzyme was incubated at 25 °C with increasing concentration (0.0004, 0.004, 0.04, 0.4, 4, 40, 400 µM) of compounds, and the fluorescence (excitation max 328 nm; emission max 393 nm) was measured for 3 min after the addition of the substrate using a Victor Wallac 1420 Multilabel Counters fluorimeter (Perkin Elmer, Waltham, MA, USA). The fluorescence values of the samples were plotted against the time with a linear regression fit, using the Origin software, version 7 (Origin Lab Corporation, Northampton, MA, USA). The slope of the line value for each inhibitor concentrations was obtained where an increase of the slope corresponds to a decrease of inhibitory activity. Subsequently, the IC50 values were obtained from a non-linear regression procedure (log inhibitor vs. response) with a variables slope of the regression line (Y) and the molar inhibitor concentration (X), using the software Origin®7 (Origin Lab Corporation). The IC50 value was obtained from the equation Y = P1/(1 + X/P2). NNGH (N-Isobutyl-N-(4-methoxyphenylsulfonyl)glycylhydroxamic acid) a potent MMPs inhibitor was used as a positive control.

The structures appear in SMILES notation.

Turning to `CC(C(=O)NN1C(=O)CSC1c1ccccc1)c1nsc2ccccc12` (stereo not shown) (hydrate or solvate) [Compound 13, 2-(1,2-Benzothiazol-3-yl)-N-(4-oxo-2-phenyl-1,3-thiazolidin-3-yl)propanamide], the melting point was 239 to 240 °C.
`COc1ccc(C2SCC(=O)N2NC(=O)C(C)c2nsc3ccccc23)cc1` (stereo not shown) (hydrate or solvate) [Compound 15, 2-(1,2-Benzothiazol-3-yl)-N-[2-(4-methoxyphenyl)-4-oxo-1,3-thiazolidin-3-yl]propanamide] registered a melting point of 170 °C.
The same measure, in the same setting: to `CC(C(=O)NN1C(=O)CSC1c1ccc(F)cc1)c1nsc2ccccc12` (stereo not shown) (hydrate or solvate) [Compound 16, 2-(1,2-Benzothiazol-3-yl)-N-[2-(4-fluorophenyl)-4-oxo-1,3-thiazolidin-3-yl]propanamide] belongs 185 to 186 °C.
Still for that read-out and setting: to `CC(C(=O)NN1C(=O)CSC1c1ccc(C(F)(F)F)cc1)c1nsc2ccccc12` (stereo not shown) (hydrate or solvate) [Compound 17, 2-(1,2-Benzothiazol-3-yl)-N-{4-oxo-2-[4-(trifluoromethyl)phenyl]-1,3-thiazolidin-3-yl}propanamide] belongs 145 to 147 °C; to `CC(C(=O)NN1C(=O)CSC1c1ccc(Cl)cc1)c1nsc2ccccc12` (stereo not shown) (hydrate or solvate) [Compound 18, 2-(1,2-Benzothiazol-3-yl)-N-[2-(4-chlorophenyl)-4-oxo-1,3-thiazolidin-3-yl]propanamide], 187 to 188 °C.
For the molecule `CC(C(=O)NN1C(=O)CSC1c1ccccc1)c1nsc2ccccc12` (stereo not shown) [Compound 13, 2-(1,2-Benzothiazol-3-yl)-N-(4-oxo-2-phenyl-1,3-thiazolidin-3-yl)propanamide], the “ORAC UNITs” value in series [1] is 0.61 ± 0.14 ORAC unit (μmol of Trolox equi. Also, the IC50 at human recombinant MMP-9 is 7.99 ± 0.65 µM.
Taken in the same sequence, the figures for `Cc1ccc(C2SCC(=O)N2NC(=O)C(C)c2nsc3ccccc23)cc1` (stereo not shown) [Compound 14, 2-(1,2-Benzothiazol-3-yl)-N-[2-(4-methylphenyl)-4-oxo-1,3-thiazolidin-3-yl]propanamide] were 0.40 ± 0.06 ORAC unit (μmol of Trolox equi and 9.01 ± 0.45 µM.
Taken in the same sequence, the figures for `COc1ccc(C2SCC(=O)N2NC(=O)C(C)c2nsc3ccccc23)cc1` (stereo not shown) [Compound 15, 2-(1,2-Benzothiazol-3-yl)-N-[2-(4-methoxyphenyl)-4-oxo-1,3-thiazolidin-3-yl]propanamide] were 0.66 ± 0.12 ORAC unit (μmol of Trolox equi and 6.82 ± 0.95 µM.
Consider `CC(C(=O)NN1C(=O)CSC1c1ccc(F)cc1)c1nsc2ccccc12` (stereo not shown) [Compound 16, 2-(1,2-Benzothiazol-3-yl)-N-[2-(4-fluorophenyl)-4-oxo-1,3-thiazolidin-3-yl]propanamide], for which, in series [1], the “ORAC UNITs” value was 0.46 ± 0.20 ORAC unit (μmol of Trolox equi. In addition, the IC50 at human recombinant MMP-9 was determined as 17.2 ± 1.92 µM.
On to `CC(C(=O)NN1C(=O)CSC1c1ccc(C(F)(F)F)cc1)c1nsc2ccccc12` (stereo not shown) [Compound 17, 2-(1,2-Benzothiazol-3-yl)-N-{4-oxo-2-[4-(trifluoromethyl)phenyl]-1,3-thiazolidin-3-yl}propanamide], for which the “ORAC UNITs” value in series [1] is given as 0.27 ± 0.06 ORAC unit (μmol of Trolox equi.
Turning to `CC(C(=O)NN1C(=O)CSC1c1ccc(Cl)cc1)c1nsc2ccccc12` (stereo not shown) [Compound 18, 2-(1,2-Benzothiazol-3-yl)-N-[2-(4-chlorophenyl)-4-oxo-1,3-thiazolidin-3-yl]propanamide], in series [1], the “ORAC UNITs” value is on record as 0.47 ± 0.23 ORAC unit (μmol of Trolox equi. For the same molecule, the IC50 on human recombinant MMP-9 is 16.1 ± 1.23 µM.
For `CC(C(=O)NN1C(=O)CSC1c1ccc([N+](=O)[O-])cc1)c1nsc2ccccc12` (stereo not shown) [Compound 19, 2-(1,2-Benzothiazol-3-yl)-N-[2-(4-nitrophenyl)-4-oxo-1,3-thiazolidin-3-yl]propanamide], in series [1], the “ORAC UNITs” value was 0.40 ± 0.17 ORAC unit (μmol of Trolox equi. Also, the half-maximal inhibitory concentration (IC50) at human recombinant MMP-9 stood at 22.1 ± 1.42 µM.
On to `COc1ccc(S(=O)(=O)N(CC(=O)NO)CC(C)C)cc1` [NNGH, N-isobutyl-N-(4-methoxy-phenylsulfonyl)glycylhydroxamic acid, reference compound], for which the half-maximal inhibitory concentration (IC50) on human recombinant MMP-9 was 0.0065 ± 0.00025 µM.

The values are drawn from PMC6017844, “4-Thiazolidinone Derivatives as MMP Inhibitors in Tissue Damage: Synthesis, Biological Evaluation and Docking Studies” (Molecules : A Journal of Synthetic Chemistry and Natural …, 2018).
